# Legend:
# [1] = test system: M. marinum; assay: microbe, parasite or virus in culture; format: cell-based; details: Mycobacterium marinum
# [2] = test system: M. intracellulare; assay: microbe, parasite or virus in culture; format: cell-based; details: Mycobacterium intracellulare
# [3] = test system: M. gordonae; assay: microbe, parasite or virus in culture; format: cell-based; details: Mycobacterium gordonae
# [4] = test system: M. gilvum; assay: microbe, parasite or virus in culture; format: cell-based, Mycobacterium gilvum; details: Mycolicibacterium gilvum
# [5] = test system: clinically isolated MDR, XDR, and TDR M. tuberculosis strains; assay: microbe, parasite or virus in culture; format: cell-based; details: Mycobacterium tuberculosis
# [6] = test system: M. smegmatis; assay: microbe, parasite or virus in culture; format: cell-based, Mycobacterium smegmatis; details: Mycolicibacterium smegmatis
# [7] = test system: M. kyorinense; assay: microbe, parasite or virus in culture; format: cell-based; details: Mycobacterium kyorinense
# [8] = test system: M. bolletii; assay: microbe, parasite or virus in culture; format: cell-based, Mycobacterium bolletii; details: Mycobacteroides abscessus
# [9] = test system: M. avium; assay: microbe, parasite or virus in culture; format: cell-based; details: Mycobacterium avium
# [10] = test system: M. kansasii; assay: microbe, parasite or virus in culture; format: cell-based; details: Mycobacterium kansasii
# [11] = test system: M. chitae; assay: microbe, parasite or virus in culture; format: cell-based, Mycobacterium chitae; details: Mycolicibacterium chitae
# [12] = test system: M. colombiense; assay: microbe, parasite or virus in culture; format: cell-based; details: Mycobacterium colombiense
# [13] = test system: M. peregrinum; assay: microbe, parasite or virus in culture; format: cell-based, Mycobacterium peregrinum; details: Mycolicibacterium peregrinum
# [14] = test system: M. xenopi; assay: microbe, parasite or virus in culture; format: cell-based; details: Mycobacterium xenopi
# [15] = test system: M. marseiliense; assay: microbe, parasite or virus in culture; format: cell-based; details: Mycobacterium
# [16] = test system: M. fortuitum; assay: microbe, parasite or virus in culture; format: cell-based, Mycobacterium fortuitum; details: Mycolicibacterium fortuitum
# [17] = test system: M. massiliense; assay: microbe, parasite or virus in culture; format: cell-based, Mycobacterium massiliense; details: Mycobacteroides abscessus
# [18] = test system: M. heraklionease; assay: microbe, parasite or virus in culture; format: cell-based; details: Mycobacterium
# [19] = test system: M. goodie; assay: microbe, parasite or virus in culture; format: cell-based; details: Mycobacterium
# [20] = test system: M. abscessus; assay: microbe, parasite or virus in culture; format: cell-based, Mycobacterium abscessus; details: Mycobacteroides abscessus
# [21] = test system: Proteus mirabilis; assay: Broth dilution MIC (CLSI); format: cell-based; details: read-out: MIC
# Source text: (§1) Bacteria (Acinetobacter baumannii NCCP 14782, Citrobacter freundii NCCP 14766, Enterobacter aerogenes NCCP 14761, Escherichia coli NCCP 14762, Escherichia coli O157 NCCP 14541, Klebsiella pneumoniae NCCP 14764, Proteus mirabilis NCCP 14763, Proteus vulgaris NCCP 14765, Pseudomonas aeruginosa NCCP 14781, Salmonella Enteritidis NCCP 14771, Salmonella Paratyphi A NCCP 14759, Salmonella Typhimurium NCCP 16207, Serratia marcescens NCCP 14770, Shigella boydii NCCP 14745, Shigella dysenteriae NCCP 14746, Shigella flexneri NCCP 14744, Shigella sonnei NCCP 14773, Bacillus subtilis NCCP 11101, Corynebacterium diphtheriae NCCP 10353, Staphylococcus aureus MSSA NCCP 14780, Staphylococcus aureus MRSA NCCP 14769, Staphylococcus epidermidis NCCP 14768, Streptococcus pneumoniae NCCP 14774) and fungi (Aspergillus fumigatus NCCP 22454, Candida albicans NCCP 32557, Cryptococcus neoformans NCCP 32559, Microsporum canis NCCP 22454, Rhizopus oryzae NCCP 22458, Saccharomyces cerevisiae NCCP 32558, Trichophyton rubrum NCCP 22456) strains were obtained from the National Culture Collection for Pathogens (NCCP) (Chungbuk, Korea). The MIC of each agent was determined following the Clinical and Laboratory Standards Institute (CLSI).[40]
# [22] = test system: Staphylococcus aureus, MSSA; assay: Broth dilution MIC (CLSI); format: cell-based; details: read-out: MIC
# Source text: as §1
# [23] = test system: Escherichia coli; assay: Broth dilution MIC (CLSI); format: cell-based; details: read-out: MIC
# Source text: as §1
# [24] = test system: Shigella boydii; assay: Broth dilution MIC (CLSI); format: cell-based; details: read-out: MIC
# Source text: as §1
# [25] = test system: Corynebacterium diphtheriae; assay: Broth dilution MIC (CLSI); format: cell-based; details: read-out: MIC
# Source text: as §1
# [26] = test system: Staphylococcus epidermidis; assay: Broth dilution MIC (CLSI); format: cell-based; details: read-out: MIC
# Source text: as §1
# [27] = test system: Salmonella Enteritidis; assay: Broth dilution MIC (CLSI); format: cell-based; details: Salmonella enterica; Salmonella Enteritidis; read-out: MIC
# Source text: as §1
# [28] = test system: Candida albicans; assay: Broth dilution MIC (CLSI); format: cell-based; details: read-out: MIC
# Source text: as §1
# [29] = test system: Trichophyton rubrum; assay: Broth dilution MIC (CLSI); format: cell-based; details: read-out: MIC
# Source text: as §1
# [30] = test system: Aspergillus fumigatus; assay: Broth dilution MIC (CLSI); format: cell-based; details: read-out: MIC
# Source text: as §1
# [31] = test system: Microsporum canis; assay: Broth dilution MIC (CLSI); format: cell-based; details: read-out: MIC
# Source text: as §1
# [32] = test system: Serratia marcescens; assay: Broth dilution MIC (CLSI); format: cell-based; details: read-out: MIC
# Source text: as §1
# [33] = test system: Rhizopus oryzae; assay: Broth dilution MIC (CLSI); format: cell-based; details: Rhizopus arrhizus; Rhizopus oryzae; read-out: MIC
# Source text: as §1
# [34] = test system: Bacillus subtilis; assay: Broth dilution MIC (CLSI); format: cell-based; details: read-out: MIC
# Source text: as §1
# [35] = test system: Salmonella Typhimurium; assay: Broth dilution MIC (CLSI); format: cell-based; details: Salmonella enterica; Salmonella Typhimurium; read-out: MIC
# Source text: as §1
# [36] = test system: Shigella flexneri; assay: Broth dilution MIC (CLSI); format: cell-based; details: read-out: MIC
# Source text: as §1
# [37] = test system: Proteus vulgaris; assay: Broth dilution MIC (CLSI); format: cell-based; details: read-out: MIC
# Source text: as §1
# [38] = test system: Klebsiella pneumoniae; assay: Broth dilution MIC (CLSI); format: cell-based; details: read-out: MIC
# Source text: as §1
# [39] = test system: M. aubagnense; assay: microbe, parasite or virus in culture; format: cell-based, Mycobacterium aubagnense; details: Mycolicibacterium aubagnense
# [40] = test system: M. szulgai; assay: microbe, parasite or virus in culture; format: cell-based; details: Mycobacterium szulgai
# [41] = test system: M. arupense; assay: microbe, parasite or virus in culture; format: cell-based, Mycobacterium arupense; details: Mycolicibacter arupensis
# [42] = test system: M. tuberculosis H37Rv; assay: microbe, parasite or virus in culture; format: cell-based, Mycobacterium tuberculosis; details: for MIC: Mycobacterium tuberculosis, H37RV, read-out: MIC
# [43] = test system: M. conceptionense; assay: microbe, parasite or virus in culture; format: cell-based, Mycobacterium conceptionense; details: Mycolicibacterium senegalense
compound,measurement,setting,value
"NNC(=O)c1ccncc1 [INH, isoniazid, reference compound]",MIC,[1],25 µg/mL
same,MIC,[2],25 µg/mL
same,MIC,[3],> 100 µg/mL
same,MIC,[4],12.5 µg/mL
same,MIC,[5]; TDR-1,12.5 µg/mL
same,MIC,[5]; TDR-2,6.3 µg/mL
same,MIC,[5]; TDR-3,12.5 µg/mL
same,MIC,[6],25 µg/mL
same,MIC,[7],3.1 µg/mL
same,MIC,[8],> 100 µg/mL
same,MIC,[9],25 µg/mL
same,MIC,[10],0.2 µg/mL
same,MIC,[11],12.5 µg/mL
same,MIC,[12],12.5 µg/mL
same,MIC,[13],6.3 µg/mL
same,MIC,[14],1.6 µg/mL
same,MIC,[15],> 100 µg/mL
same,MIC,[16],25 µg/mL
same,MIC,[17],12.5 µg/mL
same,MIC,[18],> 100 µg/mL
same,MIC,[19],25 µg/mL
same,MIC,[20],> 100 µg/mL
same,MIC,[21],> 100 µg/mL
same,MIC,[22],> 100 µg/mL
same,MIC,[23],> 100 µg/mL
same,MIC,[24],> 100 µg/mL
same,MIC,[25],> 100 µg/mL
same,MIC,[26],> 100 µg/mL
same,MIC,[27],> 100 µg/mL
same,MIC,[28],> 100 µg/mL
same,MIC,[29],> 100 µg/mL
same,MIC,[30],> 100 µg/mL
same,MIC,[31],> 100 µg/mL
same,MIC,[32],> 100 µg/mL
same,MIC,[33],> 100 µg/mL
same,MIC,[34],> 100 µg/mL
same,MIC,[35],> 100 µg/mL
same,MIC,[36],> 100 µg/mL
same,MIC,[37],> 100 µg/mL
same,MIC,[38],> 100 µg/mL
same,MIC,[39],> 100 µg/mL
same,MIC,[40],1.6 µg/mL
same,MIC,[41],50 µg/mL
same,MIC,[42],0.4 µg/mL
same,MIC,[43],25 µg/mL
"COC(=O)[C@@H]1CCC(=O)N1Cc1cc2ccc(OC)cc2c2cc(OC)c(OC)cc12 [PP1S, (S)-N-[(2,3,6-Trimethoxy-10-phenanthryl)methyl]-pyroglutamic acid methyl ester]",MIC,[1],> 100 µg/mL
same,MIC,[2],> 100 µg/mL
same,MIC,[3],> 100 µg/mL
same,MIC,[4],> 100 µg/mL
same,MIC,[5]; TDR-1,3.3 µg/mL
same,MIC,[5]; TDR-2,0.8 µg/mL
same,MIC,[5]; TDR-3,3.1 µg/mL
same,MIC,[6],> 100 µg/mL
same,MIC,[7],> 100 µg/mL
same,MIC,[8],> 100 µg/mL
same,MIC,[9],> 100 µg/mL
same,MIC,[10],> 100 µg/mL
same,MIC,[11],> 100 µg/mL
same,MIC,[12],> 100 µg/mL
same,MIC,[13],> 100 µg/mL
same,MIC,[14],> 100 µg/mL
same,MIC,[15],> 100 µg/mL
same,MIC,[16],> 100 µg/mL
same,MIC,[17],> 100 µg/mL
same,MIC,[18],> 100 µg/mL
same,MIC,[19],> 100 µg/mL
same,MIC,[20],> 100 µg/mL
same,MIC,[21],> 100 µg/mL
same,MIC,[22],> 100 µg/mL
same,MIC,[23],> 100 µg/mL
same,MIC,[24],> 100 µg/mL
same,MIC,[25],> 100 µg/mL
same,MIC,[26],> 100 µg/mL
same,MIC,[27],> 100 µg/mL
same,MIC,[28],> 100 µg/mL
same,MIC,[29],> 100 µg/mL
same,MIC,[30],> 100 µg/mL
same,MIC,[31],> 100 µg/mL
same,MIC,[32],> 100 µg/mL
same,MIC,[33],> 100 µg/mL
same,MIC,[34],> 100 µg/mL
same,MIC,[35],> 100 µg/mL
same,MIC,[36],> 100 µg/mL
same,MIC,[37],> 100 µg/mL
same,MIC,[38],> 100 µg/mL
same,MIC,[39],> 100 µg/mL
same,MIC,[40],> 100 µg/mL
same,MIC,[41],> 100 µg/mL
same,in vitro antitubercular activities (S-form vs R-form),[42],had in vitro antitubercular activities
same,MIC,[42],1.6 µg/mL
same,SI (CC50/MIC),[42]; ratio of CC50 for L929 fibroblasts to MIC for strain H37Rv,>62.5
same,MIC,[43],> 100 µg/mL

# From paper PMC9154192 (PLoS Biology, 2022)
